Measured values as given in patent US8633245B2, “PAI-1 inhibitor” (Institute of Medicinal Molecular Design, Inc., priority 2008, dated 2014).

Molecular target: T1, recombinant human PAI-1 (Homo sapiens, UniProt P05121)
T1 construct: purchased Molecular Innovations, Inc
Test: Test Example 2: human PAI-1 inhibitory activity (tPA fluorogenic substrate, pH 7.4 HEPES buffer)
Type: biochemical
Conditions: human PAI-1
Method: 0.1 M HEPES, 0.1 M NaCl. 1 mM EDTA. 0.1% Polyethylene glycol 8,000 (Hampton Research Corporation),
2 mM Dimethyldecylphoshine oxide [Apo-10] (Fluka Corporation)

T1 sequence (P05121 24-402): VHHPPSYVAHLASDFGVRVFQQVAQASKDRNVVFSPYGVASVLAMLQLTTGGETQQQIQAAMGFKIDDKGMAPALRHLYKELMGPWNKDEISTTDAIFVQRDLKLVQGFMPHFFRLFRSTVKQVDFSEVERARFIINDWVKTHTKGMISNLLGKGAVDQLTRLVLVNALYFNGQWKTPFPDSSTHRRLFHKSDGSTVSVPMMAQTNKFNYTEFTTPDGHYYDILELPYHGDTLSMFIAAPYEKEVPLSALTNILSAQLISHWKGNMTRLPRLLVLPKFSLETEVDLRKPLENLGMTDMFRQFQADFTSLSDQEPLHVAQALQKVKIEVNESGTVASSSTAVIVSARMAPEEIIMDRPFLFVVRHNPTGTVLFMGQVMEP

| SMILES | Inhibition Rate of PAI-1 Activity (%) (compound concentration 0.1 μM) | Inhibition Rate of PAI-1 Activity (%) (compound concentration 0.3 μM) | Inhibition Rate of PAI-1 Activity (%) (compound concentration 1 μM) | Inhibition Rate of PAI-1 Activity (%) (compound concentration 3 μM) |
| --- | --- | --- | --- | --- |
| CCCCCOc1ccc(-c2ccc(OCC(=O)O)c(Oc3ccc(C(C)(C)C)cc3)c2)cc1 [Compound 440] | 0 | 3 | 96 | >99 |
| CC(C)c1ccc(-c2ccc(OCC(=O)O)c(Oc3ccc(C(C)(C)C)cc3)c2)cc1 [Compound 441] | 9 | 29 | 89 | 98 |
| CC(C)(C)c1ccc(Oc2cc(-c3ccc(OC(F)(F)F)cc3)ccc2NCC(=O)O)cc1 [Compound 442] | 1 | 4 | 83 | >99 |
| CCCCc1ccc(-c2ccc(OCC(=O)O)c(Oc3ccc(C(C)(C)C)cc3)c2)cc1 [Compound 443] | 7 | 8 | 76 | >99 |
| Cc1ccc(-c2ccc(OCC(=O)O)c(Oc3ccc(C(C)(C)C)cc3)c2)cc1 [Compound 444] | 0 | 0 | 11 | 96 |
| COc1ccc(-c2ccc(OCC(=O)O)c(Oc3ccc(C(C)(C)C)cc3)c2)cc1 [Compound 445] | 0 | 1 | 12 | 50 |
| CC(C)(C)c1ccc(Oc2cc(-c3ccc(C(C)(C)C)cc3)ccc2OCC(=O)O)cc1 [Compound 446] | 3 | 13 | 84 | >99 |
| CCC(CC)Oc1ccc(-c2ccc(OCC(=O)O)c(Oc3ccc(C(C)(C)C)cc3)c2)cc1 [Compound 447] | 4 | 11 | 89 | >99 |
| CSc1ccc(-c2ccc(OCC(=O)O)c(Oc3ccc(C(C)(C)C)cc3)c2)cc1 [Compound 448] | 4 | 11 | 39 | >99 |
| CC(C)(C)c1ccc(Oc2cc(-c3ccc(OC(F)(F)F)cc3)ccc2/C=C\C(=O)O)cc1 [Compound 450] | 9 | 11 | 58 | 98 |
| O=C(O)COc1cc(Oc2ccc(OC(F)(F)F)cc2)ccc1OCCCCc1ccccc1 [Compound 452] | 9 | 8 | 15 | 94 |
| CC(C)(C)c1ccc(Oc2ccc(-c3ccc(C(C)(C)C)cc3)cc2OCC(=O)O)cc1 [Compound 453] | 4 | 15 | 96 | >99 |
| CCCCCOc1ccc(-c2ccc(Oc3ccc(C(C)(C)C)cc3)c(OCC(=O)O)c2)cc1 [Compound 454] | 11 | 17 | >99 | >99 |
| CC(C)(C)c1ccc(Oc2cc(-c3cc(Cl)ccc3Cl)ccc2OCC(=O)O)cc1 [Compound 455] | 9 | 20 | 93 | 99 |
| CC(C)(C)c1ccc(Oc2cc(-c3ccccc3OC(F)(F)F)ccc2OCC(=O)O)cc1 [Compound 456] | 7 | 13 | 70 | 98 |
| CC(C)(C)c1ccc(Oc2cc(-c3ccc(Cl)cc3)ccc2OCC(=O)O)cc1 [Compound 457] | 21 | 18 | 63 | >99 |
| CC(C)(C)c1ccc(Oc2cc(-c3ccc(F)cc3)ccc2OCC(=O)O)cc1 [Compound 459] | 26 | 31 | 42 | 86 |
| CC(C)Oc1ccc(-c2ccc(OCC(=O)O)c(Oc3ccc(C(C)(C)C)cc3)c2)cc1 [Compound 460] | 1 | 8 | 63 | >99 |
| CCCCOc1ccc(Oc2cc(-c3ccc(OC(F)(F)F)cc3)ccc2CCC(=O)O)cc1 [Compound 461] | 1 | 26 | 95 | 98 |

| SMILES | Inhibition Rate of PAI-1 Activity (%) (compound concentration 0.1 μM) | Inhibition Rate of PAI-1 Activity (%) (compound concentration 0.3 μM) | Inhibition Rate of PAI-1 Activity (%) (compound concentration 1 μM) | Inhibition Rate of PAI-1 Activity (%) (compound concentration 3 μM) |
| --- | --- | --- | --- | --- |
| CC(C)(C)c1ccc(Sc2cc(-c3ccc(OC(F)(F)F)cc3)ccc2/C=C/C(=O)O)cc1 [Compound 462] | 37 | 94 | 97 | 95 |
| CC(C)(C)c1ccc(-c2ccc(OCC(=O)O)c(Oc3cccc(C(C)(C)C)c3)c2)cc1 [Compound 465] | 10 | 17 | 87 | 98 |
| CC(C)(C)c1ccc(Oc2cc(-c3ccccc3OC(F)(F)F)ccc2/C=C/C(=O)O)cc1 [Compound 466] | 4 | 9 | 88 | >99 |
| CC(C)(C)c1ccc(Oc2cc(-c3ccccc3OC(F)(F)F)ccc2CCC(=O)O)cc1 [Compound 467] | 2 | 6 | 73 | >99 |
| CCCCOc1ccc(-c2ccc(OCC(=O)O)c(Oc3ccc(C(C)(C)C)cc3)c2)cc1 [Compound 468] | 1 | 5 | 86 | 97 |
| CC(C)(C)c1ccc(Oc2cc(-c3ccc4ccccc4c3)ccc2/C=C/C(=O)O)cc1 [Compound 469] | 4 | 22 | 96 | >99 |
| CC(C)(C)c1ccc(Oc2cc(-c3ccc4ccccc4c3)ccc2CCC(=O)O)cc1 [Compound 470] | 3 | 16 | 87 | >99 |
| CC(C)(C)c1ccc(Oc2cc(-c3ccc(C#N)cc3)ccc2OCC(=O)O)cc1 [Compound 471] | 5 | 7 | 11 | 49 |
| CCCCOc1cccc(Oc2cc(-c3ccc(OC(F)(F)F)cc3)ccc2CCC(=O)O)c1 [Compound 472] | 15 | 14 | 71 | >99 |
| CC(C)(C)Oc1ccc(Oc2cc(-c3ccc(OC(F)(F)F)cc3)ccc2CCC(=O)O)cc1 [Compound 473] | 15 | 9 | 26 | >99 |
| O=C(O)CCc1ccc(-c2ccc(OC(F)(F)F)cc2)cc1Oc1ccc(C(F)(F)F)cc1 [Compound 474] | 2 | 11 | 43 | >99 |
| CCC(C)(C)c1ccc(Oc2cc(-c3ccc(OC(F)(F)F)cc3)ccc2CCC(=O)O)cc1 [Compound 475] | 4 | 27 | 94 | >99 |
| O=C(O)CCc1ccc(-c2ccc(OC(F)(F)F)cc2)cc1Oc1ccc2ccccc2c1 [Compound 476] | 0 | 3 | 65 | >99 |
| O=C(O)/C=C/c1ccc(-c2ccc(OC(F)(F)F)cc2)cc1Oc1ccc(OC(F)(F)F)cc1 [Compound 477] | 7 | 21 | 60 | >99 |
| CC(C)(C)c1ccc(-c2ccc(/C=C/C(=O)O)c(Oc3ccc(OC(F)(F)F)cc3)c2)cc1 [Compound 478] | 11 | 33 | 90 | >99 |
| O=C(O)CCc1ccc(-c2ccc(OC(F)(F)F)cc2)cc1Oc1ccc(OC(F)(F)F)cc1 [Compound 479] | 17 | 14 | 70 | >99 |
| CC(C)(C)c1ccc(-c2ccc(CCC(=O)O)c(Oc3ccc(OC(F)(F)F)cc3)c2)cc1 [Compound 480] | 17 | 22 | 80 | >99 |
| CCCCc1ccc(Oc2cc(-c3ccc(OC(F)(F)F)cc3)ccc2OCC(=O)O)cc1 [Compound 481] | 19 | 16 | 70 | >99 |
